Data reported in PubChem BioAssay AID1918955 (Molecular Pharmacology Branch, DTP, NCI, 2023).

System: NCI/ADR-RES complex spheroid viability
Assay: Anticancer human tumor NCI/ADR-RES cell line growth inhibition;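 for viability, T/C: 100% = DMSO vehicle treated spheroids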
Conditions: for IC50: curve of first compound; for viability, T/C: stronger effect = lower value
How it was run: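 Complex spheroids of tumor cells with HUVEC and human MSCs, exposed to iadademstat combined with other agents. Each agent tested in half-log steps from near clinical Cmax (else 10 microM top), DMSO ≤0.25%.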

[1] = second compound 0.1 µM, first compound 0.00949 µM
[2] = second compound 0.1 µM, first compound 0.03 µM
[3] = second compound 0.1 µM, first compound 0.0949 µM
[4] = second compound 0.1 µM, first compound 0.3 µM
[5] = second compound 0.316 µM, first compound 0.00949 µM
[6] = second compound 0.316 µM, first compound 0.03 µM
[7] = second compound 0.316 µM, first compound 0.0949 µM
[8] = second compound 0.316 µM, first compound 0.3 µM
[9] = second compound 1 µM, first compound 0.00949 µM
[10] = second compound 1 µM, first compound 0.03 µM
[11] = second compound 1 µM, first compound 0.0949 µM
[12] = second compound 1 µM, first compound 0.3 µM
[13] = second compound 3.16 µM, first compound 0.00949 µM
[14] = second compound 3.16 µM, first compound 0.03 µM
[15] = second compound 3.16 µM, first compound 0.0949 µM
[16] = second compound 3.16 µM, first compound 0.3 µM
[17] = second compound 10 µM, first compound 0.00949 µM
[18] = second compound 10 µM, first compound 0.03 µM
[19] = second compound 10 µM, first compound 0.0949 µM
[20] = second compound 10 µM, first compound 0.3 µM

| SMILES | IC50 (second compound 0.1 µM) [nM] | IC50 (second compound 0.316 µM) [nM] | IC50 (second compound 1 µM) [nM] | IC50 (second compound 3.16 µM) [nM] | IC50 (second compound 10 µM) [nM] | viability, T/C [1] [%] | viability, T/C [2] [%] | viability, T/C [3] [%] | viability, T/C [4] [%] | viability, T/C [5] [%] | viability, T/C [6] [%] | viability, T/C [7] [%] | viability, T/C [8] [%] | viability, T/C [9] [%] | viability, T/C [10] [%] | viability, T/C [11] [%] | viability, T/C [12] [%] | viability, T/C [13] [%] | viability, T/C [14] [%] | viability, T/C [15] [%] | further results |
| --- | --- | --- | --- | --- | --- | --- | --- | --- | --- | --- | --- | --- | --- | --- | --- | --- | --- | --- | --- | --- | --- |
| CCN(c1cc(-c2ccc(CN3CCOCC3)cc2)cc(C(=O)NCc2c(C)cc(C)[nH]c2=O)c1C)C1CCOCC1 + NC1CCC(NC2CC2c2ccccc2)CC1 | > 3000 | > 3000 | > 3000 | > 3000 | > 3000 | 92.4 | 92.5 | 98.1 | 98.1 | 94.6 | 97.9 | 96.9 | 95 | 104 | 99.5 | 93.8 | 99 | 89.4 | 98 | 94 | viability, T/C (second compound 0.1 µM, first compound 0.949 µM): 92.8%; viability, T/C (second compound 0.1 µM, first compound 3 µM): 89.3%; viability, T/C (second compound 0.316 µM, first compound 0.949 µM): 91.4%; viability, T/C (second compound 0.316 µM, first compound 3 µM): 81.5%; viability, T/C (second compound 1 µM, first compound 0.949 µM): 95.7%; viability, T/C (second compound 1 µM, first compound 3 µM): 89.2%; viability, T/C [16]: 96%; viability, T/C (second compound 3.16 µM, first compound 0.949 µM): 87.6%; viability, T/C (second compound 3.16 µM, first compound 3 µM): 89%; viability, T/C [17]: 91.9%; viability, T/C [18]: 89.8%; viability, T/C [19]: 88.2%; viability, T/C [20]: 86.1%; viability, T/C (second compound 10 µM, first compound 0.949 µM): 90.1%; viability, T/C (second compound 10 µM, first compound 3 µM): 80.9% |
| Nc1ncn(C2CC(O)C(CO)S2)c(=O)n1 (stereo not given) + NC1CCC(NC2CC2c2ccccc2)CC1 | 17.5 | 12.6 | 13.9 | 8.87 | 6.46 | 60.2 | 41.5 | 25.3 | 6.6 | 56.2 | 34 | 17.1 | 6.79 | 57 | 35 | 18.6 | 4.76 | 46.6 | 37.1 | 17.7 | viability, T/C (second compound 0.1 µM, first compound 0.000949 µM): 99.2%; viability, T/C (second compound 0.1 µM, first compound 0.003 µM): 76.1%; viability, T/C (second compound 0.316 µM, first compound 0.000949 µM): 106%; viability, T/C (second compound 0.316 µM, first compound 0.003 µM): 79.3%; viability, T/C (second compound 1 µM, first compound 0.000949 µM): 99.9%; viability, T/C (second compound 1 µM, first compound 0.003 µM): 80.3%; viability, T/C (second compound 3.16 µM, first compound 0.000949 µM): 102%; viability, T/C (second compound 3.16 µM, first compound 0.003 µM): 66.1%; viability, T/C [16]: 4.6%; viability, T/C (second compound 10 µM, first compound 0.000949 µM): 85.1%; viability, T/C (second compound 10 µM, first compound 0.003 µM): 57.3%; viability, T/C [17]: 43.7%; viability, T/C [18]: 31%; viability, T/C [19]: 13.9%; viability, T/C [20]: 3.33% |
